Target: T1, mitochondrial diazepam binding inhibitor receptor (MDR) (Rattus norvegicus, UniProt P16257)
T1 construct: Crude mitochondria fractions prepared from rat cerebral cortex were used as a receptor sample; from tissue; host or cells: rat cerebral cortex, crude mitochondria fraction
Test: MDR receptor binding assay ([3H]PK11195 displacement, crude mitochondria fractions from rat cerebral cortex)
Conditions: 50% inhibition of [3H]PK11195 (2 nM) binding; rat cerebral cortex crude mitochondria fraction, 4° C., 90 minutes
Experimental: Experiment [MDR Receptor Binding Assay]
Crude mitochondria fractions prepared from rat cerebral cortex were used as a receptor sample, and [^3H]PK11195 was used as a [^3H]-labeled ligand.
A binding assay using the [^3H]-labeled ligand was carried out according to the following method as described in Journal of Pharmacology and Experimental Therapeutics, 262, 971(1992).
Preparation of Receptor Sample: Rat cerebral cortex was homogenized using a Teflon-coated homogenizer in a 10 mM HEPES buffer (pH 7.4) containing 0.32 M sucrose in ten volumes of the wet weight. The homogenate was centrifuged at 900×g for 10 minutes, and the resulting supernatant was centrifuged at 9,000×g for 10 minutes. The precipitate was suspended in a HEPES buffer to give a protein concentration of 1 mg/ml, and centrifuged at 12,000×g for 10 minutes. The resulting precipitate was suspended in a 50 mM HEPES buffer (pH 7.4) to give a crude mitochondria fraction.
MDR Binding Assay:. Mitochondria sample (1.0 mg protein/ml), [^3H]PK11195 (2 nM) and the test drug were reacted at 4° C. for 90 minutes.
After completion of the reaction, the reaction mixture was filtered with suction through a glass filter (GF/B) treated with 0.3% polyethyleneimine, and the radioactivity on the filter was measured by a liquid scintillation spectrometer.
The binding at the reaction in the presence of 10 μM PK11195 was defined as non-specific binding of [^3H]PK11195, and the difference between total binding and non-specific binding was defined as specific binding.

T1 sequence (P16257 whole entry): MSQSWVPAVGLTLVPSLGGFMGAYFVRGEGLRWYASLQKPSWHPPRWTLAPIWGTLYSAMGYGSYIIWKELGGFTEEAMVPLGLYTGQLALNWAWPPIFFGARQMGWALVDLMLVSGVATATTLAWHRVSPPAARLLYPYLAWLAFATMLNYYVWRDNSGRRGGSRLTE

SMILES	IC50 [nM]
CCCCCCCCCCN(CCCCCCCCCC)C(=O)c1cc2ccccc2n(Cc2ccccc2)c1=O [Compound 06]	53.4
CCCCCCN(CCCCCC)C(=O)c1cc2ccccc2n(Cc2ccccn2)c1=O [Compound 18]	0.404
CCCCCCN(CCCCCC)C(=O)c1cc2ccccc2n(Cc2cccnc2)c1=O [Compound 19, N,N-dihexyl-1-(3-picolyl)-1,2-dihydro-2-oxoquinoline-3-carboxamide]	0.368
CCCN(CCC)C(=O)c1cc2ccccc2n(Cc2ccccc2)c1=O [Compound 04]	1.71
CCCCCCN(CCCCCC)C(=O)c1cc2ccccc2n(Cc2ccccc2)c1=O [Compound 05]	0.159
CCCCCCN(CCCCCC)C(=O)c1cc2ccccc2n(CCc2ccccc2)c1=O [Compound 21]	6.58

More lines, now with the values ahead:

IC50 [nM]	SMILES
0.192	CCCCCCN(CCCCCC)C(=O)c1cc2ccccc2n(Cc2ccncc2)c1=O [Compound 20]
0.132	CCCCCCN(CCCCCC)C(=O)c1cc2ccc(Cl)cc2n(Cc2ccccc2)c1=O [Compound 23]

Source: patent US6380384B1, “1,2-dihydro-2-oxoquinoline derivatives” (Taisho Pharmaceutical Co., Ltd., priority 1997, dated 2002)
